Reference: ChEMBL document CHEMBL1201862, “PubChem BioAssay data set” (2004)
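All cell lines were grown in 96-well plates and treated with compound for 48 hours. At the GI50, growth is halved.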 Calls of active or inactive are those of the source. No stated cut-off is given here; in the data, active = GI50 up to about 1.1 µM and inactive = higher.

What was measured:
Assay in all cases: growth of human tumour cells (NCI), 48 h
IGROV-1 = tested on: IGROV-1
MDA-MB-435 = tested on: MDA-MB-435
M14 = tested on: M14
MDA-N = tested on: MDA-N
SK-OV-3 = tested on: SK-OV-3
TK-10 = tested on: TK-10
HL-60 = tested on: HL-60
RPMI-8226 = tested on: RPMI-8226
SK-MEL-28 = tested on: SK-MEL-28
A549 = tested on: A549
MDA-MB-231 = tested on: MDA-MB-231
HT-29 = tested on: HT-29
UO-31 = tested on: UO-31
NCI-H460 = tested on: NCI-H460
M19-MEL = tested on: M19-MEL
HCT-116 = tested on: HCT-116
RXF 393 = tested on: RXF 393
DMS-114 = tested on: DMS-114
OVCAR-4 = tested on: OVCAR-4
SNB-78 = tested on: SNB-78
PC-3 = tested on: PC-3
DU-145 = tested on: DU-145
SR = tested on: SR
BT-549 = tested on: BT-549
EKVX = tested on: EKVX
SF-539 = tested on: SF-539
LXFL 529 = tested on: LXFL 529
SF-295 = tested on: SF-295
NCI/ADR-RES = tested on: NCI/ADR-RES
SK-MEL-5 = tested on: SK-MEL-5
HCC 2998 = tested on: HCC 2998
NCI-H23 = tested on: NCI-H23
HCT-15 = tested on: HCT-15
HOP-18 = tested on: HOP-18
DLD-1 = tested on: DLD-1
SNB-19 = tested on: SNB-19
OVCAR-5 = tested on: OVCAR-5
UACC-257 = tested on: UACC-257
K562 = tested on: K562
T47D = tested on: T47D
COLO 205 = tested on: COLO 205
786-0 = tested on: 786-0
SK-MEL-2 = tested on: SK-MEL-2
OVCAR-8 = tested on: OVCAR-8
KM12 = tested on: KM12
LOX IMVI = tested on: LOX IMVI
NCI-H226 = tested on: NCI-H226
OVCAR-3 = tested on: OVCAR-3
KM-20L2 = tested on: KM-20L2
HOP-62 = tested on: HOP-62
MCF7 = tested on: MCF7
Hs-578T = tested on: Hs-578T
MOLT-4 = tested on: MOLT-4
CCRF-CEM = tested on: CCRF-CEM
UACC-62 = tested on: UACC-62
SF-268 = tested on: SF-268
A498 = tested on: A498
SN12C = tested on: SN12C
Malme-3M = tested on: Malme-3M
SW-620 = tested on: SW-620
SNB-75 = tested on: SNB-75
U-251 = tested on: U-251
NCI-H522 = tested on: NCI-H522
HOP-92 = tested on: HOP-92
ACHN = tested on: ACHN
XF498 = tested on: XF498

With `Cc1cc(NC(=O)NC(=O)c2ccccc2N(C)C)ccc1Oc1ncc(Br)cn1` the GI50 (IGROV-1) was 1.46 µM (inactive), the GI50 (MDA-MB-435) was 0.0424 µM (active) and the GI50 (M14) was 0.957 µM (active). For the same compound, the GI50 (MDA-N) was 0.0302 µM (active), the GI50 (SK-OV-3) was 0.437 µM (active) and the GI50 (TK-10) was 4.51 µM (inactive). For the same compound, the GI50 (HL-60) was 0.073 µM (active), the GI50 (RPMI-8226) was 0.451 µM (active) and the GI50 (SK-MEL-28) was 0.64 µM (active). The GI50 (A549) was 0.705 µM (active), the GI50 (MDA-MB-231) was 1.45 µM (inactive) and the GI50 (HT-29) was 0.305 µM (active). The GI50 (UO-31) was 2.04 µM (inactive), the GI50 (NCI-H460) was 0.403 µM (active) and the GI50 (M19-MEL) was 0.455 µM (active). The GI50 (HCT-116) was 0.439 µM (active), the GI50 (RXF 393) was 0.656 µM (active) and the GI50 (DMS-114) was 0.219 µM (active). For the same compound, the GI50 (OVCAR-4) was 6.68 µM (inactive), the GI50 (SNB-78) was 1.05 µM (active) and the GI50 (PC-3) was 0.333 µM (active). The GI50 (DU-145) was 1.06 µM (active), the GI50 (SR) was 0.0541 µM (active) and the GI50 (BT-549) was 0.731 µM (active). The GI50 (EKVX) was 1.96 µM (inactive), the GI50 (SF-539) was 0.267 µM (active) and the GI50 (LXFL 529) was 0.39 µM (active). The GI50 (SF-295) was 0.224 µM (active), the GI50 (NCI/ADR-RES) was 0.361 µM (active) and the GI50 (SK-MEL-5) was 0.179 µM (active). The GI50 (HCC 2998) was 0.53 µM (active), the GI50 (NCI-H23) was 1.17 µM (inactive) and the GI50 (HCT-15) was 0.202 µM. For the same compound, the GI50 (HOP-18) was > 100 µM (inactive), the GI50 (DLD-1) was 0.373 µM (active) and the GI50 (SNB-19) was 0.532 µM (active). For the same compound, the GI50 (OVCAR-5) was 8.11 µM (inactive), the GI50 (UACC-257) was 0.41 µM (active) and the GI50 (K562) was 0.119 µM (active). The GI50 (T47D) was 1.61 µM (inactive), the GI50 (COLO 205) was 0.78 µM (active) and the GI50 (786-0) was 0.425 µM (active). For the same compound, the GI50 (SK-MEL-2) was 0.733 µM (active), the GI50 (OVCAR-8) was 1.1 µM (active) and the GI50 (KM12) was 0.359 µM (active). The GI50 (LOX IMVI) was 0.369 µM (active), the GI50 (NCI-H226) was 9.27 µM (inactive) and the GI50 (OVCAR-3) was 0.29 µM (active). The GI50 (KM-20L2) was 0.284 µM (active), the GI50 (HOP-62) was 0.659 µM (active) and the GI50 (MCF7) was 0.249 µM (active). For the same compound, the GI50 (Hs-578T) was 0.267 µM (active), the GI50 (MOLT-4) was 1.08 µM (active) and the GI50 (CCRF-CEM) was 0.237 µM (active). For the same compound, the GI50 (UACC-62) was 0.301 µM (active), the GI50 (SF-268) was 0.977 µM (active) and the GI50 (A498) was 0.29 µM (active). The GI50 (SN12C) was 1.74 µM (inactive), the GI50 (Malme-3M) was 0.425 µM (active) and the GI50 (SW-620) was 0.301 µM (active). For the same compound, the GI50 (SNB-75) was 0.135 µM (active), the GI50 (U-251) was 0.497 µM (active) and the GI50 (NCI-H522) was 0.21 µM (active). The GI50 (HOP-92) was 1.3 µM (inactive), the GI50 (ACHN) was 3.05 µM (inactive) and the GI50 (XF498) was 0.288 µM (active).

For `O=C1C(c2ccc(Br)cc2)=[N+]([O-])c2ccccc21`, the GI50 (IGROV-1) was 17.4 µM (inactive), the GI50 (M14) was 16.3 µM (inactive) and the GI50 (SK-OV-3) was 55.1 µM (inactive). The GI50 (TK-10) was 15.9 µM (inactive), the GI50 (HL-60) was 2.14 µM (inactive) and the GI50 (RPMI-8226) was 3.88 µM (inactive). For the same compound, the GI50 (SK-MEL-28) was 20.2 µM (inactive), the GI50 (A549) was 20.9 µM (inactive) and the GI50 (HT-29) was 21.6 µM (inactive). The GI50 (UO-31) was 14.3 µM (inactive), the GI50 (NCI-H460) was 16.9 µM (inactive) and the GI50 (M19-MEL) was 9.62 µM (inactive). The GI50 (HCT-116) was 14.4 µM (inactive), the GI50 (RXF 393) was 16.9 µM (inactive) and the GI50 (DMS-114) was 3.94 µM (inactive). The GI50 (EKVX) was 16 µM (inactive), the GI50 (SF-539) was 20.5 µM (inactive) and the GI50 (LXFL 529) was 5.16 µM (inactive). The GI50 (SF-295) was > 10 µM (inactive), the GI50 (SK-MEL-5) was 9.55 µM (inactive) and the GI50 (HCC 2998) was 13.5 µM (inactive). For the same compound, the GI50 (NCI-H23) was 15.8 µM (inactive), the GI50 (HCT-15) was 5.97 µM and the GI50 (HOP-18) was 11.9 µM (inactive). The GI50 (DLD-1) was 8.51 µM (inactive), the GI50 (SNB-19) was 21 µM (inactive) and the GI50 (OVCAR-5) was 20.8 µM (inactive). For the same compound, the GI50 (UACC-257) was 11.3 µM (inactive), the GI50 (K562) was 10.2 µM (inactive) and the GI50 (COLO 205) was 16.3 µM (inactive). For the same compound, the GI50 (786-0) was 17.1 µM (inactive), the GI50 (SK-MEL-2) was 11.7 µM (inactive) and the GI50 (OVCAR-8) was 10.2 µM (inactive). For the same compound, the GI50 (KM12) was 14.8 µM (inactive), the GI50 (LOX IMVI) was 8.75 µM (inactive) and the GI50 (NCI-H226) was 13.1 µM (inactive). The GI50 (OVCAR-3) was 14.9 µM (inactive), the GI50 (KM-20L2) was 20.7 µM (inactive) and the GI50 (HOP-62) was 27 µM (inactive). The GI50 (MOLT-4) was 4.79 µM (inactive), the GI50 (CCRF-CEM) was 4.12 µM (inactive) and the GI50 (UACC-62) was 16 µM (inactive). For the same compound, the GI50 (SF-268) was 17.6 µM (inactive), the GI50 (A498) was 22.1 µM (inactive) and the GI50 (SN12C) was 15.5 µM (inactive). The GI50 (Malme-3M) was 18.4 µM (inactive), the GI50 (SW-620) was 26.1 µM (inactive) and the GI50 (SNB-75) was 16.6 µM (inactive). For the same compound, the GI50 (U-251) was 14.7 µM (inactive), the GI50 (NCI-H522) was 2.45 µM (inactive) and the GI50 (HOP-92) was 7.21 µM (inactive). The GI50 (ACHN) was 13.4 µM (inactive) and the GI50 (XF498) was 17.5 µM (inactive).

`CC(C)N1C(C)[C@@H](c2ccccc2)O[P@]1(=O)CC1=CCCCC1` (stereo partly drawn) was tested, and the GI50 (IGROV-1) was > 100 µM (inactive), the GI50 (M14) was 97.5 µM (inactive) and the GI50 (SK-OV-3) was > 100 µM (inactive). The GI50 (TK-10) was > 100 µM (inactive), the GI50 (HL-60) was 22.4 µM (inactive) and the GI50 (RPMI-8226) was 62.8 µM (inactive). The GI50 (SK-MEL-28) was > 100 µM (inactive), the GI50 (A549) was > 100 µM (inactive) and the GI50 (HT-29) was > 100 µM (inactive). For the same compound, the GI50 (UO-31) was 74 µM (inactive), the GI50 (NCI-H460) was 87.1 µM (inactive) and the GI50 (M19-MEL) was > 100 µM (inactive). For the same compound, the GI50 (HCT-116) was > 100 µM (inactive), the GI50 (RXF 393) was > 100 µM (inactive) and the GI50 (DMS-114) was 49.5 µM (inactive). For the same compound, the GI50 (SR) was 44.5 µM (inactive), the GI50 (EKVX) was 85.9 µM (inactive) and the GI50 (SF-539) was > 100 µM (inactive). For the same compound, the GI50 (LXFL 529) was 92.5 µM (inactive), the GI50 (SF-295) was 40.9 µM (inactive) and the GI50 (SK-MEL-5) was 45.2 µM (inactive). For the same compound, the GI50 (HCC 2998) was 99.3 µM (inactive), the GI50 (NCI-H23) was 82.8 µM (inactive) and the GI50 (HCT-15) was over 100 µM. For the same compound, the GI50 (HOP-18) was > 100 µM (inactive), the GI50 (DLD-1) was > 100 µM (inactive) and the GI50 (SNB-19) was > 100 µM (inactive). The GI50 (OVCAR-5) was 88.5 µM (inactive), the GI50 (UACC-257) was 68.1 µM (inactive) and the GI50 (K562) was 49.3 µM (inactive). The GI50 (COLO 205) was 98.4 µM (inactive), the GI50 (786-0) was > 100 µM (inactive) and the GI50 (SK-MEL-2) was > 100 µM (inactive). The GI50 (OVCAR-8) was > 100 µM (inactive), the GI50 (KM12) was > 100 µM (inactive) and the GI50 (LOX IMVI) was 74.1 µM (inactive). For the same compound, the GI50 (NCI-H226) was > 100 µM (inactive), the GI50 (OVCAR-3) was 62.7 µM (inactive) and the GI50 (KM-20L2) was 94.8 µM (inactive). The GI50 (HOP-62) was > 100 µM (inactive), the GI50 (MOLT-4) was 44.3 µM (inactive) and the GI50 (CCRF-CEM) was 35.6 µM (inactive). The GI50 (UACC-62) was 51.5 µM (inactive), the GI50 (SF-268) was > 100 µM (inactive) and the GI50 (A498) was > 100 µM (inactive). For the same compound, the GI50 (SN12C) was > 100 µM (inactive), the GI50 (Malme-3M) was > 100 µM (inactive) and the GI50 (SW-620) was 61.2 µM (inactive). The GI50 (SNB-75) was > 100 µM (inactive), the GI50 (U-251) was > 100 µM (inactive) and the GI50 (NCI-H522) was 97.5 µM (inactive). For the same compound, the GI50 (HOP-92) was 42.2 µM (inactive), the GI50 (ACHN) was > 100 µM (inactive) and the GI50 (XF498) was > 100 µM (inactive).
